Biological target: T1, AmAraf51 (Acetivibrio mesophilus, UniProt A0A4Q0I2R2)
T1 construct: gene EFD62_11990; complete ORF, 509 residues, no signal peptide; N-terminal His6 tag (not reported cut); E. coli ArcticExpress (DE3), pET24c
Assay: TLC of hydrolysis products
Format: biochemical
Details: 85 nM enzyme, 0.5 g/L substrate, pH 6.0, 60 °C

T1 sequence (A0A4Q0I2R2 entry or part of it): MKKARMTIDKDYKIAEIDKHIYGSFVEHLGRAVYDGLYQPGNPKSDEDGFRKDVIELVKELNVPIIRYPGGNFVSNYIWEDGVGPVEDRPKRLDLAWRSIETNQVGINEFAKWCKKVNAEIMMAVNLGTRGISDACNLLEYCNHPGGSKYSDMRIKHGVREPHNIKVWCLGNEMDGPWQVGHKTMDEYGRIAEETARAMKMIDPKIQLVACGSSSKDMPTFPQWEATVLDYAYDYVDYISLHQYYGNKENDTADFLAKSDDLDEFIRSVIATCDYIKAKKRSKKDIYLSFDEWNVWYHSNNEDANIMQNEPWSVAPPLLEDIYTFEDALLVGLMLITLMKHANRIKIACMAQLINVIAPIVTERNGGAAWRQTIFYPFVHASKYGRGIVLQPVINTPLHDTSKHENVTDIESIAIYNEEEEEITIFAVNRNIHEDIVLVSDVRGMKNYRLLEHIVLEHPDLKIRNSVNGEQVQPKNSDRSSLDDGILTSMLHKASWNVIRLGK

## OC[C@@H]1O[C@@H](OC[C@@H]2O[C@@H](OC[C@@H]3OC(O)[C@H](O)[C@H]3O)[C@H](O)[C@H]2O)[C@H](O)[C@H]1O (stereo partly shown) [A3, arabinotriose]
  TLC of hydrolysis products: incubation of AmAraf51 with three different AOS led to their almost complete hydrolysis to arabinose
